Source: ChEMBL document CHEMBL4715810, “Treatment of Metabolic Disorders with CB-1 Receptor Inverse Agonists” (ACS Med Chem Lett, 2016)

Legend:
Cannabinoid receptor 2 = Cannabinoid receptor 2 (Homo sapiens, UniProt P34972); test: Inverse agonist activity at human CB2 receptor expressed in HEK293 cells assessed as forskolin-stimulated cAMP accumulation measured after 30 mins by HTRF assay; format: functional, cell-based
Cannabinoid receptor 1 = Cannabinoid receptor 1 (Homo sapiens, UniProt P21554); test: Inverse agonist activity at human CB1 receptor expressed in HEK293 cells assessed as forskolin-stimulated cAMP accumulation measured after 30 mins by HTRF assay; format: functional, cell-based
Cannabinoid receptor 1, sequence (P21554 whole entry): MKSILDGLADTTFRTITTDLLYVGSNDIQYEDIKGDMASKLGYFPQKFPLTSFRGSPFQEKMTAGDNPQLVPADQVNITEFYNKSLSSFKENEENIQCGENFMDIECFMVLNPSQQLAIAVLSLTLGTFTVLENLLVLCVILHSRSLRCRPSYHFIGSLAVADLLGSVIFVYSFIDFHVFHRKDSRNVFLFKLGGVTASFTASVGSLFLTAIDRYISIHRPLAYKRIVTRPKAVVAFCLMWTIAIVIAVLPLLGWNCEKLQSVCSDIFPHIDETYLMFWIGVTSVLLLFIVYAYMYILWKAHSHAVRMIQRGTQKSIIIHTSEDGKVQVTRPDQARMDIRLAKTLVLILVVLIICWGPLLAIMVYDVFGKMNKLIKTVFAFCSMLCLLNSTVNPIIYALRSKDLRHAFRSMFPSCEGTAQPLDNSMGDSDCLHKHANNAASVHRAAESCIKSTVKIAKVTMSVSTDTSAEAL

Cannabinoid receptor 2, sequence (P34972 whole entry): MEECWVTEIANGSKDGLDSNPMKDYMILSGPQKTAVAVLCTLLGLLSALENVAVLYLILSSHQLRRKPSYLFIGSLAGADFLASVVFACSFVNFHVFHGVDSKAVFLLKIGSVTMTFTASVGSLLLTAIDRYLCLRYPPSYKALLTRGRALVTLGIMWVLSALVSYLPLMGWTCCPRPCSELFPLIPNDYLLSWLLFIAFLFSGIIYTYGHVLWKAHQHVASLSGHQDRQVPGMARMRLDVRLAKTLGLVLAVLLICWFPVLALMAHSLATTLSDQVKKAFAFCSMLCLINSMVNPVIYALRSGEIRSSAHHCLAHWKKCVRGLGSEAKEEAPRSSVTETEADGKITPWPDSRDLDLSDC

Row | SMILES | EC50 (Cannabinoid receptor 2) [µM] | EC50 (Cannabinoid receptor 1) [nM]
1 | O=C(O)c1ccccc1S(=O)(=O)N1CCC(Nc2cnnc3ccc(C(c4ccc(Cl)cc4)c4ccc(Cl)cc4)cc23)CC1 | > 10 | –
2 | Clc1ccc(C(c2ccc(Cl)cc2)c2ccc3nncc(NC4CCC(Nc5ccccc5)CC4)c3c2)cc1 (centres undefined) | > 10 | 99
3 | O=S(=O)(N1CCC(Nc2cnnc3ccc(C(O)(c4ccc(Cl)cc4)c4ccc(Cl)cc4)cc23)CC1)C(F)(F)F | > 10 | –
